# Molecular target: human Nav 1.8 (Homo sapiens, UniProt Q9Y5Y9)
# Assay: E-VIPR assay detecting and measuring Nav inhibition properties
# Assay type: cell-based
# Conditions: HEK cells expressing a truncated form of human Nav 1.8; compound numbers without "*" (not marked as run in the presence of human serum); read-out: measured IC50 value in the E-VIPR Assay
# Outline: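 Nav inhibition was read by E-VIPR: cells were electrically stimulated while coumarin/oxonol FRET emissions were recorded. Cells were HEK expressing a truncated human Nav 1.8 and co-transduced with KIR2.1, and were assayed in 25% final human serum.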
# Sequence of human Nav 1.8 (Q9Y5Y9 126-399 limits assumed): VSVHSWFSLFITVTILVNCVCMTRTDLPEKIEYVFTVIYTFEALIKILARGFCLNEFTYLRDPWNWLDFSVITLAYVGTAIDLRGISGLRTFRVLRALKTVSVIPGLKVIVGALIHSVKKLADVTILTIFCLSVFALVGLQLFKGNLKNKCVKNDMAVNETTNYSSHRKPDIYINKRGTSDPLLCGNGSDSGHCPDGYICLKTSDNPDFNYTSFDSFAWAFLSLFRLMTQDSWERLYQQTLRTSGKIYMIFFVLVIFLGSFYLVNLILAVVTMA
# Sequence of human Nav 1.8 (Q9Y5Y9 660-890 limits assumed): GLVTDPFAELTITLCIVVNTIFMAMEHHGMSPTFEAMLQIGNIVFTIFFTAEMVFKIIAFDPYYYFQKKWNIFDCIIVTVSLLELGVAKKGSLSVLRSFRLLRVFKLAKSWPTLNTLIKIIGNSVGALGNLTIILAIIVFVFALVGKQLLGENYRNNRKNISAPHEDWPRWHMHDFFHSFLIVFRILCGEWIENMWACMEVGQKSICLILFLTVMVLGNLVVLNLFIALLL
# Sequence of human Nav 1.8 (Q9Y5Y9 1148-1722 limits assumed): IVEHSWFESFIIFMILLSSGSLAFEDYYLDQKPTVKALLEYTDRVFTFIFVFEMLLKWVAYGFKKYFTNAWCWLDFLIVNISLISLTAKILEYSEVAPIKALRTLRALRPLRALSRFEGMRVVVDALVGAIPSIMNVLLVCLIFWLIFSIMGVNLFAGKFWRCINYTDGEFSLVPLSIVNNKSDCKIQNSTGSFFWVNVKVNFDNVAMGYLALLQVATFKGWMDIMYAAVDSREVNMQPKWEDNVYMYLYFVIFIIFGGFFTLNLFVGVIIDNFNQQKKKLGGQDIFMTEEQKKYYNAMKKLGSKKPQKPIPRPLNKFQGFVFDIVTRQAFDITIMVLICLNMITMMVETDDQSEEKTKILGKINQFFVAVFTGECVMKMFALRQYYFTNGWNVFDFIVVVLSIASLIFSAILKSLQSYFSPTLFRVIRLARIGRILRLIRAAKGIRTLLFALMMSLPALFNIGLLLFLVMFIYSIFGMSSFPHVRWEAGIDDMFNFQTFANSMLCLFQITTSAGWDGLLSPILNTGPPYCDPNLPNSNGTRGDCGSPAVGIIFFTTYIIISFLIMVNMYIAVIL
row,IC50 [nM],SMILES
1,< 10,"CNCCN(C)C(=O)c1cc(NC(=O)[C@@H]2O[C@@](C)(C(F)(F)F)[C@@H](C)[C@H]2c2ccc(F)c(F)c2OC)ccn1 [Compound 234, 4-((2R,3S,4S,5R)-3-(3,4-difluoro-2-methoxyphenyl)-4,5-dimethyl-5-(trifluoromethyl)tetrahydrofuran-2-carboxamido)-N-methyl-N-(2-(methylamino)ethyl)picolinamide]"
2,< 10,"COc1c([C@H]2[C@H](C(=O)Nc3ccnc(C(=O)N4CCNC[C@H]4C)c3)O[C@@](C)(C(F)(F)F)[C@H]2C)ccc(F)c1F [Compound 235, (2R,3S,4S,5R)-3-(3,4-difluoro-2-methoxyphenyl)-4,5-dimethyl-N-(2-((R)-2-methylpiperazine-1-carbonyl)pyridin-4-yl)-5-(trifluoromethyl)tetrahydrofuran-2-carboxamide]"
3,10 to 100,"COc1c([C@H]2[C@H](C(=O)Nc3ccnc(C(=O)NC4CNC4)c3)O[C@@](C)(C(F)(F)F)[C@H]2C)ccc(F)c1F [Compound 236, N-(azetidin-3-yl)-4-((2R,3S,4S,5R)-3-(3,4-difluoro-2-methoxyphenyl)-4,5-dimethyl-5-(trifluoromethyl)tetrahydrofuran-2-carboxamido)picolinamide]"
4,< 10,"COc1c([C@H]2[C@H](C(=O)Nc3ccnc(C(=O)N[C@H]4CCNC4)c3)O[C@@](C)(C(F)(F)F)[C@H]2C)ccc(F)c1F [Compound 238, 4-((2R,3S,4S,5R)-3-(3,4-difluoro-2-methoxyphenyl)-4,5-dimethyl-5-(trifluoromethyl)tetrahydrofuran-2-carboxamido)-N-((S)-pyrrolidin-3-yl)picolinamide]"
5,< 10,"COc1c([C@H]2[C@H](C(=O)Nc3ccnc(C(=O)N4C[C@@H]5C[C@H]4CN5)c3)O[C@@](C)(C(F)(F)F)[C@H]2C)ccc(F)c1F [Compound 240, (2R,3S,4S,5R)-N-(2-((1S,4S)-2,5-diazabicyclo[2.2.1]heptane-2-carbonyl)pyridin-4-yl)-3-(3,4-difluoro-2-methoxyphenyl)-4,5-dimethyl-5-(trifluoromethyl)tetrahydrofuran-2-carboxamide]"
6,< 10,"COc1c([C@H]2[C@H](C(=O)Nc3ccnc(C(=O)N4CCNC(C)(C)C4)c3)O[C@@](C)(C(F)(F)F)[C@H]2C)ccc(F)c1F [Compound 241, (2R,3S,4S,5R)-3-(3,4-difluoro-2-methoxyphenyl)-N-(2-(3,3-dimethylpiperazine-1-carbonyl)pyridin-4-yl)-4,5-dimethyl-5-(trifluoromethyl)tetrahydrofuran-2-carboxamide]"
7,10 to 100,"COc1c([C@H]2[C@H](C(=O)Nc3ccnc(C(=O)N[C@H]4CNC[C@@H]4OC)c3)O[C@@](C)(C(F)(F)F)[C@H]2C)ccc(F)c1F [Compound 242, 4-((2R,3S,4S,5R)-3-(3,4-difluoro-2-methoxyphenyl)-4,5-dimethyl-5-(trifluoromethyl)tetrahydrofuran-2-carboxamido)-N-((3S,4S)-4-methoxypyrrolidin-3-yl)picolinamide]"
8,< 10,"COc1c([C@H]2[C@H](C(=O)Nc3ccnc(C(=O)N4CCO[C@H]5CNC[C@H]54)c3)O[C@@](C)(C(F)(F)F)[C@H]2C)ccc(F)c1F [Compound 243, (2R,3S,4S,5R)-3-(3,4-difluoro-2-methoxyphenyl)-4,5-dimethyl-N-(2-((4aR,7aS)-octahydropyrrolo[3,4-b][1,4]oxazine-4-carbonyl)pyridin-4-yl)-5-(trifluoromethyl)tetrahydrofuran-2-carboxamide]"
9,100 to 1000,"COc1c([C@H]2[C@H](C(=O)Nc3ccnc(C(=O)N[C@H]4CNCC[C@H]4OC)c3)O[C@@](C)(C(F)(F)F)[C@H]2C)ccc(F)c1F [Compound 246, 4-((2R,3S,4S,5R)-3-(3,4-difluoro-2-methoxyphenyl)-4,5-dimethyl-5-(trifluoromethyl)tetrahydrofuran-2-carboxamido)-N-((3S,4R)-4-methoxypiperidin-3-yl)picolinamide]"
10,< 10,"COc1c([C@H]2[C@H](C(=O)Nc3ccnc(C(=O)N(C)[C@H]4CNC[C@@H]4OC)c3)O[C@@](C)(C(F)(F)F)[C@H]2C)ccc(F)c1F [Compound 247, 4-((2R,3S,4S,5R)-3-(3,4-difluoro-2-methoxyphenyl)-4,5-dimethyl-5-(trifluoromethyl)tetrahydrofuran-2-carboxamido)-N-((3S,4S)-4-methoxypyrrolidin-3-yl)-N-methylpicolinamide]"
11,< 10,"COC[C@H]1CN(C(=O)c2cc(NC(=O)[C@@H]3O[C@@](C)(C(F)(F)F)[C@@H](C)[C@H]3c3ccc(F)c(F)c3OC)ccn2)CCN1 [Compound 248, (2R,3S,4S,5R)-3-(3,4-difluoro-2-methoxyphenyl)-N-(2-((R)-3-(methoxymethyl)piperazine-1-carbonyl)pyridin-4-yl)-4,5-dimethyl-5-(trifluoromethyl)tetrahydrofuran-2-carboxamide]"
12,< 10,"COc1c([C@H]2[C@H](C(=O)Nc3ccnc(C(=O)N4CCN[C@H](C)C4)c3)O[C@@](C)(C(F)(F)F)[C@H]2C)ccc(F)c1F [Compound 249, (2R,3S,4S,5R)-3-(3,4-difluoro-2-methoxyphenyl)-4,5-dimethyl-N-(2-((R)-3-methylpiperazine-1-carbonyl)pyridin-4-yl)-5-(trifluoromethyl)tetrahydrofuran-2-carboxamide]"
13,< 10,"COc1c([C@H]2[C@H](C(=O)Nc3ccnc(C(=O)N4C[C@@H](C)NC[C@H]4C)c3)O[C@@](C)(C(F)(F)F)[C@H]2C)ccc(F)c1F [Compound 250, (2R,3S,4S,5R)-3-(3,4-difluoro-2-methoxyphenyl)-N-(2-((2R,5R)-2,5-dimethylpiperazine-1-carbonyl)pyridin-4-yl)-4,5-dimethyl-5-(trifluoromethyl)tetrahydrofuran-2-carboxamide]"
14,10 to 100,"COc1c([C@H]2[C@H](C(=O)Nc3ccnc(C(=O)NC[C@H]4CCCCN4)c3)O[C@@](C)(C(F)(F)F)[C@H]2C)ccc(F)c1F [Compound 251, 4-((2R,3S,4S,5R)-3-(3,4-difluoro-2-methoxyphenyl)-4,5-dimethyl-5-(trifluoromethyl)tetrahydrofuran-2-carboxamido)-N-(((R)-piperidin-2-yl)methyl)picolinamide]"
15,10 to 100,"COc1c([C@H]2[C@H](C(=O)Nc3ccnc(C(=O)N[C@@H]4CNC[C@H](C)C4)c3)O[C@@](C)(C(F)(F)F)[C@H]2C)ccc(F)c1F [Compound 252, 4-((2R,3S,4S,5R)-3-(3,4-difluoro-2-methoxyphenyl)-4,5-dimethyl-5-(trifluoromethyl)tetrahydrofuran-2-carboxamido)-N-((3S,5R)-5-methylpiperidin-3-yl)picolinamide]"
16,10 to 100,"CCO[C@H]1CNC[C@@H]1NC(=O)c1cc(NC(=O)[C@@H]2O[C@@](C)(C(F)(F)F)[C@@H](C)[C@H]2c2ccc(F)c(F)c2OC)ccn1 [Compound 253, 4-((2R,3S,4S,5R)-3-(3,4-difluoro-2-methoxyphenyl)-4,5-dimethyl-5-(trifluoromethyl)tetrahydrofuran-2-carboxamido)-N-((3S,4S)-4-ethoxypyrrolidin-3-yl)picolinamide]"
17,< 10,"COc1c([C@H]2[C@H](C(=O)Nc3ccnc(C(=O)N4C[C@H]5C[C@@H]4CN5)c3)O[C@@](C)(C(F)(F)F)[C@H]2C)ccc(F)c1F [Compound 254, (2R,3S,4S,5R)-N-(2-((1R,4R)-2,5-diazabicyclo[2.2.1]heptane-2-carbonyl)pyridin-4-yl)-3-(3,4-difluoro-2-methoxyphenyl)-4,5-dimethyl-5-(trifluoromethyl)tetrahydrofuran-2-carboxamide]"
18,< 10,"COc1c([C@H]2[C@H](C(=O)Nc3ccnc(C(=O)N4C[C@@H](F)[C@@H](N)C4)c3)O[C@@](C)(C(F)(F)F)[C@H]2C)ccc(F)c1F [Compound 255, (2R,3S,4S,5R)-N-(2-((3S,4R)-3-amino-4-fluoropyrrolidine-1-carbonyl)pyridin-4-yl)-3-(3,4-difluoro-2-methoxyphenyl)-4,5-dimethyl-5-(trifluoromethyl)tetrahydrofuran-2-carboxamide]"

row,SMILES,IC50 [nM]
1,"COc1c([C@H]2[C@H](C(=O)Nc3ccnc(C(=O)N4C5CNCC4C5)c3)O[C@@](C)(C(F)(F)F)[C@H]2C)ccc(F)c1F [Compound 237, (2R,3S,4S,5R)-N-(2-(3,6-diazabicyclo[3.1.1]heptane-6-carbonyl)pyridin-4-yl)-3-(3,4-difluoro-2-methoxyphenyl)-4,5-dimethyl-5-(trifluoromethyl)tetrahydrofuran-2-carboxamide]",10 to 100
2,"COc1c([C@H]2[C@H](C(=O)Nc3ccnc(C(=O)N4CC5CC(C4)N5)c3)O[C@@](C)(C(F)(F)F)[C@H]2C)ccc(F)c1F [Compound 239, (2R,3S,4S,5R)-N-(2-(3,6-diazabicyclo[3.1.1]heptane-3-carbonyl)pyridin-4-yl)-3-(3,4-difluoro-2-methoxyphenyl)-4,5-dimethyl-5-(trifluoromethyl)tetrahydrofuran-2-carboxamide]",< 10
3,"COc1c([C@H]2[C@H](C(=O)Nc3ccnc(C(=O)N4C[C@H]5CC[C@@H](C4)NC5)c3)O[C@@](C)(C(F)(F)F)[C@H]2C)ccc(F)c1F [Compound 244, (2R,3S,4S,5R)-N-(2-((1S,5S)-3,6-diazabicyclo[3.2.2]nonane-3-carbonyl)pyridin-4-yl)-3-(3,4-difluoro-2-methoxyphenyl)-4,5-dimethyl-5-(trifluoromethyl)tetrahydrofuran-2-carboxamide]",< 10
4,"COc1c([C@H]2[C@H](C(=O)Nc3ccnc(C(=O)N4CC5COCC(C4)N5)c3)O[C@@](C)(C(F)(F)F)[C@H]2C)ccc(F)c1F [Compound 245, (2R,3S,4S,5R)-N-(2-(3-oxa-7,9-diazabicyclo[3.3.1]nonane-7-carbonyl)pyridin-4-yl)-3-(3,4-difluoro-2-methoxyphenyl)-4,5-dimethyl-5-(trifluoromethyl)tetrahydrofuran-2-carboxamide]",< 10

# Source: patent US20250213555A1, “SUBSTITUTED TETRAHYDROFURAN ANALOGS AS MODULATORS OF SODIUM CHANNELS” (VERTEX PHARMACEUTICALS INCORPORATED, priority 2021, published 2025)
